Article PMC12027554, “Inhibition of ABCG2 by SCO-101 Enhances Chemotherapy Efficacy in Cancer” (International Journal of Molecular Sciences, 2025)

Key:
[1] = target: T1, ABCG2 (Homo sapiens, UniProt Q9UNQ0); assay: Bidirectional transport of estrone-3-sulfate across Caco-2 cell monolayers; assay type: cell-based; conditions: Caco-2 monolayers, 50 µM SCO-101
T1 sequence (Q9UNQ0 1-655): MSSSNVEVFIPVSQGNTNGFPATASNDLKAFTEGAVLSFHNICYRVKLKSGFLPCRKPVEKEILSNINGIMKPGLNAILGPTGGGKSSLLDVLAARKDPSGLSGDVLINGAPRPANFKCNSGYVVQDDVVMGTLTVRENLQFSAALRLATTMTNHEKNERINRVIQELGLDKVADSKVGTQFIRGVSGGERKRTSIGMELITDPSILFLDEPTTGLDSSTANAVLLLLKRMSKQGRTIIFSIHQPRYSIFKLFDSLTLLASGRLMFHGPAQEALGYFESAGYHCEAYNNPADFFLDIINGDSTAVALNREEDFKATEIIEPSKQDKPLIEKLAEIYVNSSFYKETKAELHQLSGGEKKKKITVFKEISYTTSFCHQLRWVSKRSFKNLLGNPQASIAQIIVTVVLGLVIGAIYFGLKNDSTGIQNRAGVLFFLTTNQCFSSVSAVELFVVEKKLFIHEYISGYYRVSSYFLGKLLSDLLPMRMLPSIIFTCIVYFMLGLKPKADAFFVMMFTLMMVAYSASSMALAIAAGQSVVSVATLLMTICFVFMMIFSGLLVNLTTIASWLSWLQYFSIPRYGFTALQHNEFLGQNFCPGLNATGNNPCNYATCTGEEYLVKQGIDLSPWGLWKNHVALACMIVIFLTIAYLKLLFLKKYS
Method: Bidirectional transport experiments (basolateral-to-apical and apical-to-basolateral) with the ABCG2 substrate estrone-3-sulfate and the MDR1/ABCB1 substrate digoxin were performed in Caco-2 cell monolayers as previously described.

[2] = target: other members of the UGT family; assay: Inhibition of glucuronidation activity of other UGT family enzymes; assay type: biochemical; conditions: Figure S3F
[3] = tested on: SCH cells; assay: Cell viability assay (CellTiter-Glo), SCH; assay type: cell-based; conditions: 96 h
Method: (§1) Cells were seeded at a density of 0.2–1 × 10^4 cells/well into 96-well plates. One day after seeding, treatments were performed in triplicate for 72 h, or as otherwise indicated in the relevant panel/figure legend and kept at 37 °C/5% CO2. Growth medium alone (“untreated” cells) or DMSO was used as a control.
For SCH, SNU-5, and MKN45 cells, 50 μL of CellTiter-Glo® Reagent (Promega; Madison, WI, USA) was added to each well at the end of the treatments. The content was mixed for 5 min to facilitate cell lysis and plates incubated at room temperature for 10 min to stabilize luminescent signals, which were then recorded using an EnVision Multi Label Reader (PerkinElmer; Waltham, MA, USA).
Background values were subtracted prior to further analysis. The percentage of cell viability was expressed as relative values versus untreated cells as determined by the various assays. EC50/IC50 values were calculated using GraphPad Prism (v10.4.1) and the in-built non-linear regression [log (inhibitor) vs. response—variable slope (four parameters)] calculation. […] Synergy scores were calculated using the ZIP model, which takes the advantages of both the Loewe additivity and the Bliss independence models, aiming at a systematic assessment of various types of drug interaction patterns that may arise in a high-throughput drug combination screening.

[4] = tested on: HT29PAR cells; assay: Cellular dye efflux assay (Hoechst 33342), parental cells; assay type: cell-based, human; conditions: SCO-101 20 µM, Ko-143 1 µM
Method: Twenty-four hours before the experiments, cells were seeded into 96-well Nunclon^TM plates at a density of 6000 (HT29), 7000 (PANC-1) or 8000 (LoVo) cells/well. The following day, cells were treated in triplicate with the relevant drugs at the indicated concentrations for 1 h. Next, 5 μg/mL Hoechst 33342 was added to the wells, and plates incubated at 37 °C for 30 min^−1 h. Cells were washed with cold PBS, treatments re-added and plates re-incubated at 37 °C for 30 min to 1 h. Plates were analyzed using a Celigo® (Nexcelom Bioscience, Lawrence, MA, USA) imaging cytometer. Data are expressed as percentages of fluorescence intensity, calculated through the following formula: % fluorescence intensity=Mean fluorescence intensity of sample/Mean fluorescence intensity of parental control×100
Fluorescent images were captured with an Olympus® IX71/TH4-200 microscope equipped with an Olympus® DP72 camera (Shinjuku, Tokyo, Japan), and cells were seeded at a 1.5 × 10^5 cells/well density and treated as described above.

[5] = tested on: HT29SN-38 cells; assay: Cell viability assay (MTT / CCK-8), SN-38-resistant HT29; assay type: cell-based, human
Method: as §1
For MTT assays, media were replaced at the final timepoint with 100 μL of 1:10 MTT reagent (0.5 mg/mL in PBS) diluted in growth medium, and plates were incubated for 3 h. A total of 100 μL/well of stop buffer (50 g Sodium Dodecyl Sulfate, 245 mL ddH2O, 5 mL 1N HCl) was added and plates incubated for 24 h to let colored formazan crystals develop. Optical densities (ODs) were measured with a PowerWave^TM Microplate spectrophotometer (BioTek, Winooski, VT, USA) at 570 nm and 670 nm (background).
For CCK-8 assays, 100 μL of 1:10 CCK-8 reagent (pevonedistat-treated HT29 cells) diluted in medium was added to each well and cells incubated for 1–2 h at 37 °C. OD values were measured at 450 nm with a VersaMax microplate spectrophotometer (Molecular Devices, San Jose, CA, USA).
Background values were subtracted prior to further analysis. The percentage of cell viability was expressed as relative values versus untreated cells as determined by the various assays. EC50/IC50 values were calculated using GraphPad Prism (v10.4.1) and the in-built non-linear regression [log (inhibitor) vs. response—variable slope (four parameters)] calculation. For determination of synergy scores, the online tool SynergyFinder+ (https://synergyfinder.org access date 15 February 2025) was employed following 4 × 4- or 6 × 6-matrix dose-escalation cell viability experiments. Doses of drugs are indicated in the relevant figure legends and ranges have been chosen based on the response of cells to single-drug dose-dependent experiments. Synergy scores were calculated using the ZIP model, which takes the advantages of both the Loewe additivity and the Bliss independence models, aiming at a systematic assessment of various types of drug interaction patterns that may arise in a high-throughput drug combination screening.

[6] = set-up: method as in earlier work; conditions: oral SCO-101 in combination with FOLFIRI; cited from earlier work
[7] = tested on: HT29SN-38 cells; assay: Colony formation assay; assay type: cell-based, human; conditions: 7 days
Method: Cells were trypsinized and counted, and 400 cells/well were seeded in 24-well plates. Drug treatments were performed 24 h after seeding for a total duration of 6 (LoVo) or 7 (HT29) days. Next, media were removed, and cells were washed with PBS and stained with 250 μL Crystal Violet solution for 10 min. Crystal Violet was then removed, plates rinsed with tap water, images captured, and colonies counted using the ImageJ software (version 1.54p). Survival fraction and plating efficiency (PE) were calculated as follows: Survival Fraction=number of colonies/number of cells plated ∗ PE PE=number of colonies formed in control/number of cells seeded

basolateral-to-apical transport of the ABCG2 substrate estrone-3-sulfate [1]: completely blocked | IC50 for other members of the UGT family compared with UGT1A1 [2]: higher IC50 values | IC50 ([5]; Homo sapiens, HT-29, 72 h): > 25 µM
SMILES: O=C(Nc1cc(C(F)(F)F)cc(C(F)(F)F)c1)Nc1ccc(Br)cc1-c1nnn[nH]1 [SCO-101, N-[4-Bromo-2-(1H-1,2,3,4-tetrazol-5-yl)phenyl]-N′-[3,5-bis(trifluoromethyl)phenyl]urea]
IC50 [3]: > 50 µM | H33342 dye accumulation [4]: No change | cell viability, SCO-101 in combination with SN-38 ([5]; SCO-101 0–50 µM + SN-38 0.08 μM): re-sensitization | cell viability after 24 h combination treatment and drug washout ([5]; SCO-101 15 μM + SN-38 0.5 μM, washout 48 h or 120 h): significant cytotoxic effect | cell viability after 24 h single treatment and drug washout ([5]; SCO-101 15 μM or SN-38 0.5 μM alone, washout 48 h or 120 h): did not affect cell viability | safety [6]: safe | colony formation ability (survival fraction) ([7]; 10 µM SCO-101 alone): did not affect | colony formation ability, SCO-101 in combination with SN-38 ([7]; SCO-101 0–20 µM + SN-38 0.01 μM, vs SCO-101 alone): significant reduction
